{
  "source": "ChEMBL document CHEMBL4371076",
  "about": "(J Med Chem, 2019)",
  "key": {"Mus musculus [1]": {"system": "Mus musculus", "assay": "Analgesic activity in CD1 mouse model of formalin-induced nociception assessed as reduction in formalin-evoked paw flinching/licking response during first phase at 30 mg/kg, po pretreated for 30 mins followed by formalin treatment and measured during first 5 mins post formalin injection", "assay_type": "functional, organism-based"}, "Mus musculus [2]": {"system": "Mus musculus", "assay": "Analgesic activity in CD1 mouse model of formalin-induced nociception assessed as reduction in formalin-evoked paw flinching/licking response during second phase at 30 mg/kg, po pretreated for 30 mins followed by formalin treatment and measured during 15 to 45 mins post formalin injection", "assay_type": "functional, organism-based"}, "[3]": {"assay": "Toxicity in CD1 mouse model of formalin-induced nociception assessed as prostration or sedation at 30 mg/kg, po", "assay_type": "organism-based", "conditions": "in vivo"}, "[4]": {"assay": "Toxicity in CD1 mouse model of formalin-induced nociception assessed as hypothermia at 30 mg/kg, po", "assay_type": "organism-based", "conditions": "in vivo"}, "[5]": {"assay": "Plasma concentration in CD1 mouse model of formalin-induced nociception at 30 mg/kg, po", "assay_type": "ADME, organism-based", "conditions": "read-out: Cp, in vivo"}, "[6]": {"assay": "Drug uptake in DRG neurons of CD1 mouse model of formalin-induced nociception at 30 mg/kg, po", "assay_type": "ADME, organism-based, DRG neuron", "conditions": "in vivo, read-out: Drug uptake"}, "[7]": {"assay": "Fraction unbound in rat DRG neurons", "assay_type": "ADME"}, "[8]": {"assay": "Fraction unbound in rat trigeminal ganglia neuron tissue", "assay_type": "ADME, tissue-based, Trigeminal ganglion"}, "Mus musculus [9]": {"species_on_record": "Mus musculus", "assay": "Reduction in mechanoreceptor-mediated afferent transmission in mouse sural nerve assessed as decrease in mechanically elicited afferent firing at 30 to 100 uM measured at 20 mins post dose at 1.6 to 980 mN threshold pressure", "assay_type": "functional, tissue-based"}, "Mus musculus [10]": {"system": "Mus musculus", "assay": "Analgesic activity in CD1 mouse model of formalin-induced nociception assessed as reduction in formalin-evoked paw flinching/licking response during first phase at 3 to 10 mg/kg, ip pretreated for 30 mins followed by formalin treatment and measured during first 5 mins post formalin injection", "assay_type": "functional, organism-based"}, "Mus musculus [11]": {"system": "Mus musculus", "assay": "Analgesic activity in CD1 mouse model of formalin-induced nociception assessed as reduction in formalin-evoked paw flinching/licking response during second phase at 3 to 10 mg/kg, ip pretreated for 30 mins followed by formalin treatment and measured during 15 to 45 mins post formalin injection", "assay_type": "functional, organism-based"}, "Mus musculus [12]": {"system": "Mus musculus", "assay": "Analgesic activity in CD1 mouse model of formalin-induced nociception assessed as reduction in formalin-evoked paw flinching/licking response during first phase at 30 mg/kg, ip pretreated for 30 mins followed by formalin treatment and measured during first 5 mins post formalin injection", "assay_type": "functional, organism-based"}, "Mus musculus [13]": {"system": "Mus musculus", "assay": "Analgesic activity in CD1 mouse model of formalin-induced nociception assessed as reduction in formalin-evoked paw flinching/licking response during second phase at 30 mg/kg, ip pretreated for 30 mins followed by formalin treatment and measured during 15 to 45 mins post formalin injection", "assay_type": "functional, organism-based"}, "[14]": {"assay": "Toxicity in CD1 mouse model of formalin-induced nociception assessed as hypothermia at 30 mg/kg, ip", "assay_type": "organism-based", "conditions": "in vivo"}, "[15]": {"assay": "Plasma concentration in CD1 mouse model of formalin-induced nociception at 30 mg/kg, ip", "assay_type": "ADME, organism-based", "conditions": "read-out: Cp, in vivo"}, "[16]": {"assay": "Unbound drug level in DRG neurons of CD1 mouse model of formalin-induced nociception at 30 mg/kg, ip", "assay_type": "ADME, organism-based, DRG neuron", "conditions": "in vivo"}, "[17]": {"molecular_target": "Sodium channel protein type 4 subunit alpha (Homo sapiens, UniProt P35499)", "sequence (P35499 whole entry)": "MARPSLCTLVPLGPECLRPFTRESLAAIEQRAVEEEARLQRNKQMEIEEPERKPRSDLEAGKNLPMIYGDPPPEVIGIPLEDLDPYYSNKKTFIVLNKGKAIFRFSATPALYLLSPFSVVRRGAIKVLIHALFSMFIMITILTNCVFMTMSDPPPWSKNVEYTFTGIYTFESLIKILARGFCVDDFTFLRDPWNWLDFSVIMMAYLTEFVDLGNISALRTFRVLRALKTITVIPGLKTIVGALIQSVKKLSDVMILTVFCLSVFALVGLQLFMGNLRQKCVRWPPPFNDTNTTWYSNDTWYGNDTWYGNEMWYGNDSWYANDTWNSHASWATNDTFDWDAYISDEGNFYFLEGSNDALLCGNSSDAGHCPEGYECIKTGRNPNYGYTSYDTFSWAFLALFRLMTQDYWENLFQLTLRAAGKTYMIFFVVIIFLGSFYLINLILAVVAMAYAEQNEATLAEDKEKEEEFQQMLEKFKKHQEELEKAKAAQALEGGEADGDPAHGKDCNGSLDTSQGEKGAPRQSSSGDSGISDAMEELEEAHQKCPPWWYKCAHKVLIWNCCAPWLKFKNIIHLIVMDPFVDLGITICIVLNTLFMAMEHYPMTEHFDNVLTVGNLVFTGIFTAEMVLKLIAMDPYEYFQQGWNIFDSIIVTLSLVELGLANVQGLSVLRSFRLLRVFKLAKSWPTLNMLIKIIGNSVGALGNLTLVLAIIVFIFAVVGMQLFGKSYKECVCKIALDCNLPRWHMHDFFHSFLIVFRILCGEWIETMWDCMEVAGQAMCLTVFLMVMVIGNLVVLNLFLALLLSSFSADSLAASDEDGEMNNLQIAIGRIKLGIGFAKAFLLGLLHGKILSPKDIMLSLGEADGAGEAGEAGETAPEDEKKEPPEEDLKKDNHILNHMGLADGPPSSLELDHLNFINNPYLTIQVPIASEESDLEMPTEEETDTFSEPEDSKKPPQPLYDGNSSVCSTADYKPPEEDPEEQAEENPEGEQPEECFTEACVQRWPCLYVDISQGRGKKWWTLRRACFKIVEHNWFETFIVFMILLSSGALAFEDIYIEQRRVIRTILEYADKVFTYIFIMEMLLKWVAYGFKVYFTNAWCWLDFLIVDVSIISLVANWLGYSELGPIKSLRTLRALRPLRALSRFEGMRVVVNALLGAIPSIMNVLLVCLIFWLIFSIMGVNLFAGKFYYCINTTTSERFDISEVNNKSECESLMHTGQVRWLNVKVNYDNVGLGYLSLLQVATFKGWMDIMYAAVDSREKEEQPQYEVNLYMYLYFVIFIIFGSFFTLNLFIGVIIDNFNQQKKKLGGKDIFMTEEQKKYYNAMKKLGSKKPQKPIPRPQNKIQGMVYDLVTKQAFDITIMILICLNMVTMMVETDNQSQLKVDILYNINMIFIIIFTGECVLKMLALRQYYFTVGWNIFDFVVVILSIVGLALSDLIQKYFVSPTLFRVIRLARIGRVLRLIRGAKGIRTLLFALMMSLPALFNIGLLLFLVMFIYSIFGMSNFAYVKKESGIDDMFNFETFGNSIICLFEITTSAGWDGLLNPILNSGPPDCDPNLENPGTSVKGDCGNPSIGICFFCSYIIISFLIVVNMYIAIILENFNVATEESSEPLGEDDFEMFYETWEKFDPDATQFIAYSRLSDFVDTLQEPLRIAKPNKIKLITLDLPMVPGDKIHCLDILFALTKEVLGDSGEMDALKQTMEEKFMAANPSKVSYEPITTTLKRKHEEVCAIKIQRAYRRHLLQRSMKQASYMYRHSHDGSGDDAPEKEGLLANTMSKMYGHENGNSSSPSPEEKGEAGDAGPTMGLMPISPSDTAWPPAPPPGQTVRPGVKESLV", "assay": "Inhibition of human Nav1.4 expressed in HEK293 cells after 600 secs at -60 mV holding potential by ion works barracuda population patch clamp method", "assay_type": "cell-based"}, "Mus musculus [18]": {"system": "Mus musculus", "assay": "Effect on thermal response latency in contralateral paw in CD1 mouse model of CFA-induced thermal hyperalgesia at 30 mg/kg, ip administered 72 hrs post CFA challenge and measured at 60 mins post dose by Hargreave's test", "assay_type": "organism-based", "conditions": "in vivo, 1 h"}, "[19]": {"assay": "Plasma concentration in CD1 mouse model of chronic constriction injury-induced cold allodynia at 10 mg/kg, ip dosed at 5 weeks post surgery and measured 60 mins post dose", "assay_type": "ADME, organism-based"}, "[20]": {"assay": "Plasma concentration in CD1 mouse model of chronic constriction injury-induced cold allodynia at 30 mg/kg, ip dosed at 5 weeks post surgery and measured 60 mins post dose", "assay_type": "ADME, organism-based"}, "[21]": {"assay": "Unbound plasma concentration in CD1 mouse model of chronic constriction injury-induced cold allodynia at 3 mg/kg, ip dosed at 5 weeks post surgery and measured 60 mins post dose", "assay_type": "ADME, organism-based", "conditions": "in vivo, 1 h"}, "[22]": {"assay": "Unbound plasma concentration in CD1 mouse model of chronic constriction injury-induced cold allodynia at 10 mg/kg, ip dosed at 5 weeks post surgery and measured 60 mins post dose", "assay_type": "ADME, organism-based", "conditions": "in vivo, 1 h"}, "Mus musculus [23]": {"species_on_record": "Mus musculus", "assay": "Reduction in mechanoreceptor-mediated afferent transmission in mouse sural nerve assessed as decrease in mechanically elicited afferent firing at 10 to 30 uM measured at 20 mins post dose at 1.6 to 980 mN threshold pressure", "assay_type": "functional, tissue-based"}},
  "note": "Calls of active or inactive are those of the source.",
  "data": [
    {"smiles": "CC(C)COc1ccc(-c2cn(C)c3cc(C(=O)NS(C)(=O)=O)c(F)cc23)cn1", "values": [
      {"measurement": "Activity", "setting": "Mus musculus [1]", "value": "inactive"},
      {"measurement": "Activity", "setting": "Mus musculus [2]", "value": "inactive"},
      {"measurement": "Activity", "setting": "[3]", "value": "Non-Toxic"},
      {"measurement": "Activity", "setting": "[4]", "value": "Non-Toxic"},
      {"measurement": "concentration", "setting": "[5]", "value": 44, "unit": "µM"},
      {"measurement": "concentration", "setting": "[6]", "value": 0.99, "unit": "µM"},
      {"measurement": "fraction unbound", "setting": "[7]", "value": 0.039},
      {"measurement": "fraction unbound", "setting": "[8]", "value": 0.045},
      {"measurement": "Activity", "setting": "Mus musculus [9]", "value": "inactive"}
    ]},
    {"smiles": "CC(C)COc1ncc(-c2cn(C)c3cc(C(=O)NS(C)(=O)=O)ccc23)cc1Cl", "values": [
      {"measurement": "Activity", "setting": "Mus musculus [10]", "value": "inactive"},
      {"measurement": "Activity", "setting": "Mus musculus [11]", "value": "inactive"},
      {"measurement": "Activity", "setting": "Mus musculus [12]", "value": "inactive"},
      {"measurement": "Activity", "setting": "Mus musculus [13]", "value": "Active"},
      {"measurement": "Activity", "setting": "[14]", "value": "Non-Toxic"},
      {"measurement": "concentration", "setting": "[15]", "value": 59, "unit": "µM"},
      {"measurement": "Drug uptake(free)", "setting": "[16]", "value": 95, "unit": "nM"},
      {"measurement": "IC50", "setting": "[17]", "value": 4.8, "unit": "µM"},
      {"measurement": "Activity", "setting": "Mus musculus [18]", "value": "Non-Toxic"},
      {"measurement": "concentration at 1 h", "setting": "[19]", "value": 27, "unit": "µM"},
      {"measurement": "concentration at 1 h", "setting": "[20]", "value": 68, "unit": "µM"},
      {"measurement": "Cp(f)", "setting": "[21]", "value": 0.0066, "unit": "µM"},
      {"measurement": "Cp(f)", "setting": "[22]", "value": 0.054, "unit": "µM"},
      {"measurement": "Activity", "setting": "Mus musculus [23]", "value": "Active"}
    ]}
  ]
}
